Laboratory results: PubChem BioAssay (NCI)
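Compound exposure: 48 hours, 5 concentrations, 96-well plates. The concentration for 50% growth inhibition is given as GI50. TGI is the concentration that stops growth completely.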

Experiments:
Experiment in all cases: NCI-60 cell line screen, 48 h
[1] = tested on: LOX IMVI melanoma
[2] = tested on: MDA-MB-435
[3] = tested on: CCRF-CEM leukemia
[4] = tested on: NCI-H460 lung
[5] = tested on: OVCAR-5 ovarian
[6] = tested on: MALME-3M melanoma
[7] = tested on: TK-10 renal
[8] = tested on: NCI-H226 lung
[9] = tested on: MCF7 breast
[10] = tested on: SF-295 CNS

SMILES | TGI [1] [µM] | TGI [2] [µM] | TGI [3] [µM] | TGI [4] [µM] | TGI [5] [µM] | TGI [6] [µM] | TGI [7] [µM] | TGI [8] [µM] | TGI [9] [µM] | TGI [10] [µM] | GI50 [2] [µM] | GI50 [3] [µM] | GI50 [5] [µM] | GI50 [7] [µM] | GI50 [8] [µM] | GI50 [9] [µM] | GI50 [10] [µM]
O=[N+]([O-])c1ccc(NC(=S)N=Nc2c(O)[nH]c3ccc([N+](=O)[O-])cc23)cc1 | 49.1 | 38.7 | 60.4 | 41.9 | 68 | 55.5 | 56.7 | 86.5 | 84.1 | 45.1 |  |  |  |  |  |  | 
COC(=O)C1=C(C(=O)OC)SC(=CC#CC=C2SC(C(=O)OC)=C(C(=O)OC)S2)S1 | 44.2 |  | > 100 | > 100 | > 100 | 64.1 | 23.9 | 35.4 |  | 11.8 |  |  |  |  |  |  | 
N#C/C(C(=O)Nc1ccc(Cl)cc1)=C(/N)N1CCCC1 | > 100 | > 100 | > 100 | > 100 | > 100 |  |  | > 100 | > 100 | > 100 |  |  |  |  |  |  | 
CC(C)N1CC2CC(CN(C(=O)c3ccccc3)C2)C1 | > 100 |  | > 100 | > 100 | > 100 | > 100 | > 100 | > 100 |  | > 100 |  |  |  |  |  |  | 
Cc1cc(S(=O)(=O)Nc2n[nH]c(-c3ccccn3)n2)c(S)cc1Cl | > 100 | 70.6 |  | 27.7 | 45.4 | 60.3 | 23.9 | 30.5 | > 100 |  |  |  |  |  |  |  | 
COc1cc(C(c2c(O)c3ccccc3oc2=O)c2c(O)c3ccccc3oc2=O)cc(Br)c1O | 33.8 | 51.6 |  |  | 39.3 | 31 | 30.6 | 49.1 | 31.3 | 40.3 |  |  |  |  |  |  | 
CCOC(=O)C1(C#N)C(c2ccccc2)CC(O)(c2ccc(Cl)cc2)C(C(=O)c2ccc(Cl)cc2)C1c1ccccc1 (stereo not given) | > 100 |  | > 100 | > 100 | > 100 | > 100 | > 100 | > 100 |  | > 100 |  |  |  |  |  |  | 
O=C(/C=C/C(=O)N1CCCC1)N1CCCC1 | > 100 | > 100 | > 100 | > 100 | > 100 | > 100 | > 100 |  | > 100 | > 100 |  |  |  |  |  |  | 
S=C(N/N=C\C(=N/NC(=S)N1CCCCC1)c1ccccc1)N1CCCCC1 | > 100 | 3.68 |  | 4.86 | 3.33 | 3.57 | 3.25 | 3.38 | > 22.4 | 3.91 |  |  |  |  |  |  | 
Cc1cc2ncn(C3CCCCO3)c2cc1C (stereo not given) | > 100 | > 100 | > 100 |  | > 100 | > 100 | > 100 | > 100 | > 100 | > 100 |  |  |  |  |  |  | 
COC(=O)[C@@H]1CCCCC[C@H]2C(CO)=C(C)C(=O)C12 (stereo not given in full) |  |  | > 100 | > 100 | > 100 | > 100 | > 100 | > 100 |  | > 100 |  |  |  |  |  |  | 
c1cncc(CC2(c3cc4ccccc4[nH]3)OCCO2)c1 | > 100 | > 100 | > 100 | > 100 |  | > 100 | > 100 | > 100 | > 100 | > 100 |  |  |  |  |  |  | 
Cc1cc(C)c2c(=O)cc(-c3cccc(F)c3)[nH]c2n1 | 22 |  |  | 2.45 | > 100 | > 100 | > 100 | 7.4 | 2.16 | 0.199 |  |  |  |  |  |  | 
CN(C)CC1CCC/C(=C\c2ccc(OC(=O)c3ccc(Cl)cc3)cc2)C1=O (stereo not given) | 1.98 | 4.01 |  | 17.5 | 5.95 | 6.8 | 5.19 | 9.77 | 1.58 | 9.84 |  |  |  |  |  |  | 
CSc1cc(=O)n2c3ccccc3c3ccnc1c32 | > 100 |  | > 100 | > 100 | > 100 | > 100 |  | > 100 | > 100 | > 100 |  |  |  |  |  |  | 
O=C1C=CC(=O)N1n1c(-c2ccccc2)n[nH]c1=O |  | > 100 | > 100 | > 100 | > 100 | > 100 | > 100 | > 100 | > 100 | > 100 |  |  |  |  |  |  | 
Cc1ccc(C(=O)N/N=C(\N=Nc2ccccc2)c2ccc(N(C)C)cc2)cc1 | > 100 | > 100 | > 100 | > 100 | > 100 |  | > 100 | > 100 | > 100 | > 100 |  |  |  |  |  |  | 
CC(C)(C)OC(=O)NC(Cc1ccccc1)NC(=O)NC(=O)OCc1ccccc1 (stereo not given) |  | > 100 |  | > 100 | > 100 | > 100 | > 100 | > 100 | > 100 | > 100 |  |  |  |  |  |  | 
O=C1N=C2SC(=S)NC(=S)N2NC12c1ccccc1-c1ccccc12 | > 10 |  | > 10 | > 10 |  | > 10 | > 10 |  | > 10 |  |  |  |  |  |  |  | 
COc1ccc(-c2c3c(n(C4OC(CO)C(O)C(O)C4O)c(=S)c2C#N)CCC3)cc1 (stereo not given) | > 100 | > 100 | > 100 | > 100 | > 100 | > 100 | > 100 |  | > 100 | > 100 |  |  |  |  |  |  | 
CC(C)C(CC(=O)OCC(CO)OC(=O)CC(C(C)C)C(C)C)C(C)C (stereo not given) |  | 28.1 | 31.7 | 26.8 | 26.1 | 28.4 | 26.3 | 30.1 | 33.5 | 21.1 |  |  |  |  |  |  | 
COc1cc(-c2n/c(=C\c3c(O)[nH]c4ccc(Cl)cc34)cc3c2=Nc2ccccc2-3)ccc1F |  | 4.65 | > 100 |  | 13.3 |  | 4.43 | 8.15 | 3.26 | 5.55 | 2.16 | 2.39 | 3.9 | 2.51 | 2.19 | 1.25 | 2.34
CCC1=C(C(C)=O)[C@@H]2CCCCC[C@@H](C(=O)OC)C2C1=O (stereo not given in full) |  |  | > 100 | > 100 | > 100 | > 100 | > 100 |  |  | > 100 |  |  |  |  |  |  | 
COc1ccc(Nc2nc(N)c(C(=O)c3c[nH]c4ccccc34)s2)cc1 | > 100 |  | 6.02 | 6.83 | > 80.5 | 21.6 | > 30.7 | 36.3 | 18.8 | > 100 |  |  |  |  |  |  | 
